The test concerns the target T1, BRM (Homo sapiens, UniProt P51531).
T1 construct: In-Cell Western Screen of BRM Degradation in SW1573 Cells; endogenous in cells; host or cells: SW1573
The experiment in a line: In-cell Western screen of BRM degradation in SW1573 cells (Dmax and DC50). The format is cell-based. The procedure, abridged:
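Adherent SW1573 cultures exposed to test compounds for 18-20 h were processed for in-cell Western after PFA fixation and detergent permeabilization. BRM degradation was reported as Dmax and DC50.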

The mark [1] stands for this setting: BRM degradation, SW1573 cells, read-out: DC50.
The mark [2] stands for this setting: BRM degradation, SW1573 cells, tested at the top concentration of between 0.3 and 10 μM, read-out: Dmax (%) (% degraded).
Setting [3] is: BRM degradation, SW1573 cells, when tested at the top concentration of between 0.3 and 10 μM, read-out: Dmax (%) (% degraded).
Where [4] appears, read: BRM degradation, SW1573 cells, read-out: Dmax (% degraded).
[5] abbreviates: SW1573, % degraded, when tested at the top concentration of between 0.3 and 10 μM, read-out: BRM Dmax (%).

Read-outs that look alike come from different tables or passages of the source.

The text below walks through data of US12539292B2, “BRM targeting compounds and associated methods of use” (Arvinas Operations, Inc., priority 2018, dated 2026).

T1 sequence (P51531 whole entry): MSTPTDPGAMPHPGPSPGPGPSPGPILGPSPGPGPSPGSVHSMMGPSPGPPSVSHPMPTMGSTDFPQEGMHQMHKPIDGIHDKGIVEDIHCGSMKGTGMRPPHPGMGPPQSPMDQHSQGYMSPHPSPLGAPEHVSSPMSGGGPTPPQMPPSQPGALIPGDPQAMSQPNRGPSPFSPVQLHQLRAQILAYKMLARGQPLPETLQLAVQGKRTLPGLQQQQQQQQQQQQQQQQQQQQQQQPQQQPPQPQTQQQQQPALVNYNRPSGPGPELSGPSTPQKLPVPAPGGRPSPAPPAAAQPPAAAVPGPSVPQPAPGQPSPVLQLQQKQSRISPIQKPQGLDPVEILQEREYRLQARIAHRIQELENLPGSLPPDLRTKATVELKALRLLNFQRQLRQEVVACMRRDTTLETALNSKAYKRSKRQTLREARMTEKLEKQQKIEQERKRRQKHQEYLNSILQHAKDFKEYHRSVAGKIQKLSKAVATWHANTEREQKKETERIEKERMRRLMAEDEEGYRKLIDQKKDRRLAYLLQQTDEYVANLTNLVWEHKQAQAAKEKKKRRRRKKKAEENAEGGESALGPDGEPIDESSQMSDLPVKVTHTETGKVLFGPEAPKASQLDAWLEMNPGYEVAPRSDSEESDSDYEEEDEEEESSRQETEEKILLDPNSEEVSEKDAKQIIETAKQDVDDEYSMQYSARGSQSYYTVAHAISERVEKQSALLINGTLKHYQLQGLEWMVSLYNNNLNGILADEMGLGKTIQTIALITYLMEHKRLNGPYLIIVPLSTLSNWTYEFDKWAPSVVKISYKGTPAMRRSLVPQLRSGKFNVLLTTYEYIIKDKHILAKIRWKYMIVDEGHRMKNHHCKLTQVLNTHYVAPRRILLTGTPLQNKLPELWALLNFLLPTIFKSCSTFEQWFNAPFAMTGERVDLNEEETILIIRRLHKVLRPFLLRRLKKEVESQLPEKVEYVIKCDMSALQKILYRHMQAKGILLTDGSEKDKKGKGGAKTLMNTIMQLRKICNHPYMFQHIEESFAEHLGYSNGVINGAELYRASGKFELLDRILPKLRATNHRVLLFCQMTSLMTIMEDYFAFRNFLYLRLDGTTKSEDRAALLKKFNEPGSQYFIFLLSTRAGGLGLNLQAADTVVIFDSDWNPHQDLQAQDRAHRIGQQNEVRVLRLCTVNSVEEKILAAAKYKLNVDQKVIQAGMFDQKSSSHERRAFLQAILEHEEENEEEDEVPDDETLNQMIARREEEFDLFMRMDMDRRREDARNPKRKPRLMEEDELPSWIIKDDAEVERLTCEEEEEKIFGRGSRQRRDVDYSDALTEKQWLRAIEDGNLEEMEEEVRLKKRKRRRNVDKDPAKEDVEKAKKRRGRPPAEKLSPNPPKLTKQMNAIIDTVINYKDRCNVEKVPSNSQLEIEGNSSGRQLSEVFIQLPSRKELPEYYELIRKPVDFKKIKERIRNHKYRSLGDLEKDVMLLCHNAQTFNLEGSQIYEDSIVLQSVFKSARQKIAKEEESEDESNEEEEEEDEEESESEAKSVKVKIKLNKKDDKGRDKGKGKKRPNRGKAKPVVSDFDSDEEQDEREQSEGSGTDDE

Turning to `Cc1ncsc1-c1ccc([C@H](C)NC(=O)[C@@H]2C[C@@H](O)CN2C(=O)[C@@H](c2cc(OCCN3CCN(CCC#CCn4cc(-c5cc(-c6ccccc6O)nnc5N)cn4)CC3)no2)C(C)C)cn1` [compound 352, (2S,4R)-1-((R)-2-(3-(2-(4-(5-(4-(3-amino-6-(2-hydroxyphenyl)pyridazin-4-yl)-1H-pyrazol-1-yl)pent-3-yn-1-yl)piperazin-1-yl)ethoxy)isoxazol-5-yl)-3-methylbutanoyl)-4-hydroxy-N-((S)-1-(6-(4-methylthiazol-5-yl)pyridin-3-yl)ethyl)pyrrolidine-2-carboxamide], under setting [1], the DC50 was less than 2.5 nM. Also, under setting [2], the Dmax was greater than 75%. `Cc1ncsc1-c1ccc([C@H](COCC2CCOCC2)NC(=O)[C@@H]2C[C@@H](O)CN2C(=O)[C@@H](c2cc(OCCN3CCN(CCOc4cc(N5C6CCC5CN(c5cc(-c7ccccc7O)nnc5N)C6)ccn4)CC3)no2)C(C)C)cc1` [compound 130, (2S,4R)-1-((2R)-2-(3-(2-(4-(2-((4-(3-(3-amino-6-(2-hydroxyphenyl)pyridazin-4-yl)-3,8-diazabicyclo[3.2.1]octan-8-yl)pyridin-2-yl)oxy)ethyl)piperazin-1-yl)ethoxy)isoxazol-5-yl)-3-methylbutanoyl)-4-hydroxy-N-((R)-1-(4-(4-methylthiazol-5-yl)phenyl)-2-((tetrahydro-2H-pyran-4-yl)methoxy)ethyl)pyrrolidine-2-carboxamide]: under setting [1], the DC50 was in the range of 2.5 to 10 nM. For the same compound, under setting [3], the Dmax is greater than 75%. The like results for `Cc1ncsc1-c1ccc(CNC(=O)[C@@H]2C[C@@H](O)CN2C(=O)[C@@H](NC(=O)COCCOCCOCCOCCOCCOc2cc(N3[C@@H]4CC[C@H]3CN(c3cc(-c5ccccc5O)nnc3N)C4)ccn2)C(C)(C)C)cc1` [compound 9, (2S,4R)-1-((S)-20-((4-((1R,5S)-3-(3-amino-6-(2-hydroxyphenyl)pyridazin-4-yl)-3,8-diazabicyclo[3.2.1]octan-8-yl)pyridin-2-yl)oxy)-2-(tert-butyl)-4-oxo-6,9,12,15,18-pentaoxa-3-azaicosanoyl)-4-hydroxy-N-(4-(4-methylthiazol-5-yl)benzyl)pyrrolidine-2-carboxamide] were, in that order, 2.5 to 10 nM and greater than 75%. In the case of `Cc1ncsc1-c1ccc(CNC(=O)[C@@H]2C[C@@H](O)CN2C(=O)[C@H](C(C)C)N2Cc3ccccc3C2=O)c(OCCOCCOCCOCCn2cc(-c3cc(-c4ccccc4O)nnc3N)cn2)c1` [compound 12, (2S,4R)-N-(2-(2-(2-(2-(2-(4-(3-amino-6-(2-hydroxyphenyl)pyridazin-4-yl)-1H-pyrazol-1-yl)ethoxy)ethoxy)ethoxy)ethoxy)-4-(4-methylthiazol-5-yl)benzyl)-4-hydroxy-1-((S)-3-methyl-2-(1-oxoisoindolin-2-yl)butanoyl)pyrrolidine-2-carboxamide], the DC50 under setting [1] was greater than 30 nM. Also, under setting [3], the Dmax was in the range of 50 to 75%.

`CC(C)[C@H](C(=O)N1C[C@H](O)C[C@H]1C(=O)N[C@@H](C)c1ccc(-c2scnc2CO)cc1)c1cc(OCCN2CCC(O[C@H]3C[C@H](Oc4cc(N5C6CCC5CN(c5cc(-c7ccccc7O)nnc5N)C6)ccn4)C3)CC2)no1` [compound 219, (2S,4R)-1-((2S)-2-(3-(2-(4-((1r,3S)-3-((4-(3-(3-amino-6-(2-hydroxyphenyl)pyridazin-4-yl)-3,8-diazabicyclo[3.2.1]octan-8-yl)pyridin-2-yl)oxy)cyclobutoxy)piperidin-1-yl)ethoxy)isoxazol-5-yl)-3-methylbutanoyl)-4-hydroxy-N-((S)-1-(4-(4-(hydroxymethyl)thiazol-5-yl)phenyl)ethyl)pyrrolidine-2-carboxamide]: the DC50 under setting [1] is greater than 30 nM. On to `Cc1ncsc1-c1ccc([C@@H](NC(=O)[C@@H]2C[C@@H](O)CN2C(=O)[C@H](c2cc(OCCN3CCN(CCOc4cc(N5C6CCC5CN(c5cc(-c7ccccc7O)nnc5N)C6)ccn4)CC3)no2)C(C)C)C(F)F)cc1` [compound 173, (2S,4R)-1-((2S)-2-(3-(2-(4-(2-((4-(3-(3-amino-6-(2-hydroxyphenyl)pyridazin-4-yl)-3,8-diazabicyclo[3.2.1]octan-8-yl)pyridin-2-yl)oxy)ethyl)piperazin-1-yl)ethoxy)isoxazol-5-yl)-3-methylbutanoyl)-N-((R)-2,2-difluoro-1-(4-(4-methylthiazol-5-yl)phenyl)ethyl)-4-hydroxypyrrolidine-2-carboxamide], for which, under setting [1], the DC50 was greater than 30 nM. Also, the Dmax under setting [2] was greater than 75%.

On to `Cc1ncsc1-c1ccc(CNC(=O)[C@@H]2C[C@@H](O)CN2C(=O)[C@H](c2cc(OCCOCCOCCOc3cc(N4C5CCC4CN(c4cc(-c6ccccc6O)nnc4N)C5)ccn3)no2)C(C)C)cc1` [compound 27, (2S,4R)-1-[(2S)-2-[3-[2-(2-[2-[(4-[3-[3-amino-6-(2-hydroxyphenyl)pyridazin-4-yl]-3,8-diazabicyclo[3.2.1]octan-8-yl]pyridin-2-yl)oxy]ethoxy]ethoxy)ethoxy]-1,2-oxazol-5-yl]-3-methylbutanoyl]-4-hydroxy-N-[[4-(4-methyl-1,3-thiazol-5-yl)phenyl]methyl]pyrrolidine-2-carboxamide], for which the DC50 under setting [1] is greater than 30 nM. Moreover, under setting [3], the Dmax was greater than 75%. `Cc1ncsc1-c1ccc([C@H](C)NC(=O)[C@@H]2C[C@@H](O)CN2C(=O)[C@@H](c2cc(OCCOCCOCCOCCn3cc(-c4cc(-c5ccccc5O)nnc4N)cn3)no2)C(C)C)cc1` [compound 182, (2S,4R)-1-((R)-2-(3-(2-(2-(2-(2-(4-(3-amino-6-(2-hydroxyphenyl)pyridazin-4-yl)-1H-pyrazol-1-yl)ethoxy)ethoxy)ethoxy)ethoxy)isoxazol-5-yl)-3-methylbutanoyl)-4-hydroxy-N-((S)-1-(4-(4-methylthiazol-5-yl)phenyl)ethyl)pyrrolidine-2-carboxamide]: the DC50 under setting [1] was 2.5 to 10 nM. Besides, the Dmax under setting [2] was greater than 75%. In the case of `CC(C)[C@H](C(=O)N1C[C@H](O)C[C@H]1C(=O)N[C@@H](C)c1ccc(-c2ccnn2C)cc1)c1cc(N2CCC(CN3CCC(O[C@H]4C[C@H](Oc5cc(N6C7CCC6CN(c6cc(-c8ccccc8O)nnc6N)C7)ccn5)C4)CC3)CC2)no1` [compound 631, (2S,4R)-1-((2S)-2-(3-(4-((4-((1r,3r)-3-((4-(3-(3-amino-6-(2-hydroxyphenyl)pyridazin-4-yl)-3,8-diazabicyclo[3.2.1]octan-8-yl)pyridin-2-yl)oxy)cyclobutoxy)piperidin-1-yl)methyl)piperidin-1-yl)isoxazol-5-yl)-3-methylbutanoyl)-4-hydroxy-N-((S)-1-(4-(1-methyl-1H-pyrazol-5-yl)phenyl)ethyl)pyrrolidine-2-carboxamide], the DC50 under setting [1] is less than 2.5 nM. For the same compound, the Dmax under setting [4] is greater than 75%. As to `Cc1cc([C@@H](C(=O)N2C[C@H](O)C[C@H]2C(=O)N[C@@H](C)c2ccc(-c3scnc3C)cc2)[C@@H](C)COCCCOc2cc(N3C4CCC3CN(c3cc(-c5ccccc5O)nnc3N)C4)ccn2)on1` [compound 494, (2S,4R)-1-((2S,3R)-4-(3-((4-(3-(3-amino-6-(2-hydroxyphenyl)pyridazin-4-yl)-3,8-diazabicyclo[3.2.1]octan-8-yl)pyridin-2-yl)oxy)propoxy)-3-methyl-2-(3-methylisoxazol-5-yl)butanoyl)-4-hydroxy-N-((S)-1-(4-(4-methylthiazol-5-yl)phenyl)ethyl)pyrrolidine-2-carboxamide], the DC50 (BRM degradation, read-out: BRM DC50) was less than 2.5 nM. For the same compound, the Dmax under setting [5] was greater than 75%. Consider `Cc1cnnn1-c1ccc([C@H](C)NC(=O)[C@@H]2C[C@@H](O)CN2C(=O)[C@H](c2cc(OCCN3CCN(CCOc4cc(N5C6CCC5CN(c5cc(-c7ccccc7O)nnc5N)C6)ccn4)CC3)no2)C(C)C)cc1` [compound 274, (2S,4R)-1-((2S)-2-(3-(2-(4-(2-((4-(3-(3-amino-6-(2-hydroxyphenyl)pyridazin-4-yl)-3,8-diazabicyclo[3.2.1]octan-8-yl)pyridin-2-yl)oxy)ethyl)piperazin-1-yl)ethoxy)isoxazol-5-yl)-3-methylbutanoyl)-4-hydroxy-N-((S)-1-(4-(5-methyl-1H-1,2,3-triazol-1-yl)phenyl)ethyl)pyrrolidine-2-carboxamide], for which, under setting [1], the DC50 is greater than 30 nM. `Cc1ncsc1-c1ccc([C@H](C)NC(=O)[C@@H]2C[C@@H](O)CN2C(=O)[C@@H](c2cc(N3CCN(CC4CCN(C[C@H]5C[C@H](Oc6cc(N7C8CCC7CN(c7cc(-c9ccccc9O)nnc7N)C8)ccn6)C5)CC4)CC3)no2)C(C)C)cc1` [compound 458, (2S,4R)-1-((2R)-2-(3-(4-((1-(((1r,3r)-3-((4-(3-(3-amino-6-(2-hydroxyphenyl)pyridazin-4-yl)-3,8-diazabicyclo[3.2.1]octan-8-yl)pyridin-2-yl)oxy)cyclobutyl)methyl)piperidin-4-yl)methyl)piperazin-1-yl)isoxazol-5-yl)-3-methylbutanoyl)-4-hydroxy-N-((S)-1-(4-(4-methylthiazol-5-yl)phenyl)ethyl)pyrrolidine-2-carboxamide]: the Dmax under setting [5] is greater than 75%. The DC50 (target protein degradation, read-out: BRM DC50) is less than 2.5 nM. Turning to `Cc1ncsc1-c1ccc([C@H](CO)NC(=O)[C@@H]2C[C@@H](O)CN2C(=O)[C@@H](c2cc(N3CCC(CN4CCC(O[C@H]5C[C@H](Oc6cc(N7C8CCC7CN(c7cc(-c9ccccc9O)nnc7N)C8)ccn6)C5)CC4)CC3)no2)C(C)C)cc1` [compound 653, (2S,4R)-1-((2R)-2-(3-(4-((4-((1r,3r)-3-((4-(3-(3-amino-6-(2-hydroxyphenyl)pyridazin-4-yl)-3,8-diazabicyclo[3.2.1]octan-8-yl)pyridin-2-yl)oxy)cyclobutoxy)piperidin-1-yl)methyl)piperidin-1-yl)isoxazol-5-yl)-3-methylbutanoyl)-4-hydroxy-N-((R)-2-hydroxy-1-(4-(4-methylthiazol-5-yl)phenyl)ethyl)pyrrolidine-2-carboxamide], under setting [1], the DC50 is less than 2.5 nM. Under setting [4], the Dmax was greater than 75%.

One may read the DC50 as the concentration giving 50% degradation. As a reminder, the Dmax is the largest share of the target that was removed.
